# Tested on: primary human fibroblasts derived from IPF patients (LL29 cells)
# Assay: Inhibition of fibrotic process, αSMA staining in TGF-β1 treated LL29 fibroblasts
# Format: cell-based
# Conditions: Fibroblast, 96 h, TGF-β1 20 ng/mL, 4 days; for EC50: % αSMA positive cells; for inhibition at 10 µM: given for EC50 >10 μM, read-out: percent inhibition at 10 μM
# From the text: Representative compounds were screened using primary human fibroblasts (derived from IPF patients) treated with TGF-β1 to determine their ability to inhibit the fibrotic process.
# Primary human fibroblasts derived from IPF patients (LL29 cells) [^1Xiaoqiu Liu, et. al., “Fibrotic Lung Fibroblasts Show Blunted Inhibition by cAMP Due to Deficient cAMP Response Element-Binding Protein Phosphorylation”, Journal of Pharmacology and Experimental Therapeutics (2005), 315(2), 678-687; ^2Watts, K. L., et. al., “RhoA signaling modulates cyclin D1 expression in human lung fibroblasts; implications for idiopathic pulmonary fibrosis”, Respiratory Research (2006), 7(1), 88] were obtained from American Type Culture Collection (ATCC) and expanded in F12 medium supplemented with 15% Fetal Bovine Serum and Penicillin/Streptomycin.
# Each compound was dissolved in DMSO as a 10 mM stock and used to prepare compound source plates. Serial dilution (1:2, 11-point dose-response curves from […] to […]) and compound transfer was performed using the ECHO 550 (Labcyte, Sunnyvale, Calif.) into 384-well clear bottom assay plates (Greiner Bio-One) with appropriate DMSO backfill for a final DMSO concentration of 0.1%. LL29 cells are plated at 1,500 cells/well in 80 μL/well F12 medium supplemented with 1% Fetal Bovine Serum. One hour after addition of the cells, TGF-β1 (Peprotech; 20 ng/mL) was added to the plates to induce fibrosis (ref. 1 and 2 above). Wells treated with TGF-β1 and containing DMSO were used as controls. Cells were incubated at 37° C. and 5% CO2 for 4 days. Following incubation for 4 days, SYTOX green nucleic acid stain (Life Technologies [Thermo Fisher Scientific]) was added to the wells at a final concentration of 1 μM and incubated at room temperature for 30 min. Cells were then fixed using 4% formaldehyde (Electron Microscopy Sciences), washed 3 times with PBS followed by blocking and permeabilization using 3% Bovine Serum Albumin (BSA; Sigma) and 0.3% Triton X-100 (Sigma) in PBS. Cells were then stained with antibody specific to α-smooth muscle actin (αSMA; Abcam) (ref. 1 and 2 above) in 3% Bovine Serum Albumin (BSA; Sigma) and 0.3% Triton X-100 (Sigma) in PBS, and incubated overnight at 4° C. Cells were then washed 3 times with PBS, followed by incubation with Alexa Flor-647 conjugated secondary antibody (Life Technologies [Thermo Fisher Scientific]) and DAPI at room temperature for 1 hour. Cells were then washed 3 times with PBS and plates were sealed for imaging. αSMA staining was imaged by excitation at 630 nm and emission at 665 nm and quantified using the Compartmental Analysis program on the CellInsight CX5 (Thermo Scientific). Dead or apoptotic cells were excluded from analysis based on positive SYTOX green staining. % of total cells positive for αSMA were counted in each well and normalized to the average of 11 wells treated with TGF-β1 on the same plate using Dotmatics' Studies Software. The normalized averages (fold change over untreated) of 3 replicate wells for each compound concentration were used to create dose-responses curves and EC50 values were calculated using non-linear regression curve fit in the Dotmatics' Studies Software. For EC50 of >10 μM, the percent inhibition at 10 μM is provided.
Structure (SMILES),EC50,inhibition at 10 µM
"CCC(=O)Nc1cncc(-c2cnc3[nH]nc(-c4cc5c(-c6cccc(F)c6)ccnc5[nH]4)c3c2)c1 [Compound 1, N-(5-(3-(4-(3-Fluorophenyl)-1H-pyrrolo[2,3-b]pyridin-2-yl)-1H-pyrazolo [3,4-b]pyridin-5-yl)pyridin-3-yl)propionamide]",> 10000 nM,0%
"Fc1cccc(-c2ccnc3[nH]c(-c4n[nH]c5ncc(-c6cccnc6)cc45)cc23)c1 [Compound 4, 3-(4-(3-Fluorophenyl)-1H-pyrrolo[2,3-b]pyridin-2-yl)-5-(pyridin-3-yl)-1H-pyrazolo[3,4-b]pyridine]",2720 nM,–
"O=C(Nc1cncc(-c2cnc3[nH]nc(-c4cc5c(-c6cccc(F)c6)ccnc5[nH]4)c3c2)c1)c1ccccc1 [Compound 11, N-(5-(3-(4-(3-Fluorophenyl)-1H-pyrrolo[2,3-b]pyridin-2-yl)-1H-pyrazolo [3,4-b]pyridin-5-yl)pyridin-3-yl)benzamide]",320 nM,–
"Fc1cccc(-c2ccnc3[nH]c(-c4n[nH]c5ncc(-c6ccncc6)cc45)cc23)c1 [Compound 18, 3-(4-(3-Fluorophenyl)-1H-pyrrolo[2,3-b]pyridin-2-yl)-5-(pyridin-4-yl)-1H-pyrazolo[3,4-b]pyridine]",1450 nM,–
"O=C(Nc1cncc(-c2cnc3[nH]nc(-c4cc5c(-c6cccc(F)c6)ccnc5[nH]4)c3c2)c1)C1CC1 [Compound 20, N-(5-(3-(4-(3-Fluorophenyl)-1H-pyrrolo[2,3-b]pyridin-2-yl)-1H-pyrazolo [3,4-b]pyridin-5-yl)pyridin-3-yl)cyclopropanecarboxamide]",2630 nM,–
"Fc1cccc(-c2ccnc3[nH]c(-c4n[nH]c5ncc(-c6ccccn6)cc45)cc23)c1 [Compound 28, 3-(4-(3-Fluorophenyl)-1H-pyrrolo[2,3-b]pyridin-2-yl)-5-(pyridin-2-yl)-1H-pyrazolo[3,4-b]pyridine]",> 10000 nM,52%
"CC(C)CC(=O)Nc1cncc(-c2cnc3[nH]nc(-c4cc5c(-c6ccc(F)cc6)ccnc5[nH]4)c3c2)c1 [Compound 30, N-(5-(3-(4-(4-Fluorophenyl)-1H-pyrrolo[2,3-b]pyridin-2-yl)-1H-pyrazolo [3,4-b]pyridin-5-yl)pyridin-3-yl)-3-methylbutanamide]",> 10000 nM,12.8%
"Fc1ccc(-c2ccnc3[nH]c(-c4n[nH]c5ncc(-c6cncc(CN7CCCCC7)c6)cc45)cc23)cc1 [Compound 43, 3-(4-(4-Fluorophenyl)-1H-pyrrolo[2,3-b]pyridin-2-yl)-5-(5-(piperidin-1-ylmethyl)pyridin-3-yl)-1H-pyrazolo[3,4-b]pyridine]",> 10000 nM,0%
"O=C(Nc1cncc(-c2cnc3[nH]nc(-c4cc5c(-c6ccc(F)cc6)ccnc5[nH]4)c3c2)c1)C1CCCCC1 [Compound 51, N-(5-(3-(4-(4-Fluorophenyl)-1H-pyrrolo[2,3-b]pyridin-2-yl)-1H-pyrazolo [3,4-b]pyridin-5-yl)pyridin-3-yl)cyclohexanecarboxamide]",> 10000 nM,1.3%
"Fc1ccc(-c2ccnc3[nH]c(-c4n[nH]c5ncc(-c6cncc(CN7CCC(F)(F)C7)c6)cc45)cc23)cc1 [Compound 54, 5-(5-((3,3-Difluoropyrrolidin-1-yl)methyl)pyridin-3-yl)-3-(4-(4-fluorophenyl)-1H-pyrrolo[2,3-b]pyridin-2-yl)-1H-pyrazolo[3,4-b]pyridine]",4880 nM,–
"Fc1ccc(-c2ccnc3[nH]c(-c4n[nH]c5ncc(-c6cncnc6)cc45)cc23)cc1 [Compound 55, 3-(4-(4-Fluorophenyl)-1H-pyrrolo[2,3-b]pyridin-2-yl)-5-(pyrimidin-5-yl)-1H-pyrazolo[3,4-b]pyridine]",> 10000 nM,1.8%
"CC(C)C(=O)Nc1cncc(-c2cnc3[nH]nc(-c4cc5c(-c6ccccc6F)ccnc5[nH]4)c3c2)c1 [Compound 65, N-(5-(3-(4-(2-Fluorophenyl)-1H-pyrrolo[2,3-b]pyridin-2-yl)-1H-pyrazolo [3,4-b]pyridin-5-yl)pyridin-3-yl)isobutyramide]",812 nM,–

# — US10285983B2, “3-(1H-pyrrolo[2,3-B]pyridin-2-yl)-1H-pyrazolo[3,4-B] pyridines and therapeutic uses thereof” (Samumed, LLC, priority 2015, dated 2019)
